Like-named read-outs stand apart in the source and are kept apart here.
Legend:
[1] = tested on: CYP2C19; conditions: in vivo
[2] = molecular target: T1, CYP3A4 (Homo sapiens, UniProt P08684); conditions: parent and primary metabolite, CYP3A4 probe search
[3] = cited from earlier work
[4] = tested on: CYP450 enzymes; conditions: cited from earlier work
[5] = tested on: plasma protein; conditions: cited from earlier work
[6] = molecular target: T2, CYP1A2 (Homo sapiens, UniProt P05177); test: Saliva phenotyping with caffeine probe (caffeine/paraxanthine metabolic ratio); assay type: in vivo
T2 sequence (P05177 1-516): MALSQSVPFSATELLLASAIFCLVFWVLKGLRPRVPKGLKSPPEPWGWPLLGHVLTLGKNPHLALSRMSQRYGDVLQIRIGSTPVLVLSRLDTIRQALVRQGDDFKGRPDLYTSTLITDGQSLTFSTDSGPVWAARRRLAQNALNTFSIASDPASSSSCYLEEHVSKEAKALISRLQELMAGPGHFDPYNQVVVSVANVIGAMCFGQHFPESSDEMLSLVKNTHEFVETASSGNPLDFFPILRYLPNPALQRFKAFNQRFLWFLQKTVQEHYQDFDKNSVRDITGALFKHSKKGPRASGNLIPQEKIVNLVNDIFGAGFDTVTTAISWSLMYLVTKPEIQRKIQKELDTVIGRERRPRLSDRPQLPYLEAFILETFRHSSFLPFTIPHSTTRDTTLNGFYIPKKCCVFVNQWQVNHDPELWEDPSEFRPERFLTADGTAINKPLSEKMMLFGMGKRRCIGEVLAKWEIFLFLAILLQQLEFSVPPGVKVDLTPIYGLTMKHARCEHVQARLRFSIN

[7] = tested on: CYP2D6; conditions: Hou et al., saliva, cited from earlier work
[8] = tested on: CYP2D6; test: Saliva phenotyping with dextromethorphan probe (dextromethorphan/dextrorphan metabolic ratio); assay type: in vivo, human
Excerpt: 3. […] Record the time in your lab notebook.
1. […] Repeat with the other three saliva samples.
4. […] Repeat with the other three saliva samples.

[9] = cited from earlier work; remark: listed apart in the source
[10] = molecular target: T1, CYP3A4; parameters: endogenous in cells; host or cells: healthy volunteers, in vivo; saliva sampled; conditions: eplerenone; cited from earlier work
[11] = Table of Exemplary Drugs, CYP3A4
[12] = Table of Exemplary Drugs, CYP1A2
[13] = saliva, healthy adults, dextromethorphan 30 mg
[14] = Table of Exemplary Drugs, CYP2C19
[15] = Table of Exemplary Drugs, CYP2C9
[16] = Table of Exemplary Drugs, CYP2D6

T1 sequence (P08684 whole entry): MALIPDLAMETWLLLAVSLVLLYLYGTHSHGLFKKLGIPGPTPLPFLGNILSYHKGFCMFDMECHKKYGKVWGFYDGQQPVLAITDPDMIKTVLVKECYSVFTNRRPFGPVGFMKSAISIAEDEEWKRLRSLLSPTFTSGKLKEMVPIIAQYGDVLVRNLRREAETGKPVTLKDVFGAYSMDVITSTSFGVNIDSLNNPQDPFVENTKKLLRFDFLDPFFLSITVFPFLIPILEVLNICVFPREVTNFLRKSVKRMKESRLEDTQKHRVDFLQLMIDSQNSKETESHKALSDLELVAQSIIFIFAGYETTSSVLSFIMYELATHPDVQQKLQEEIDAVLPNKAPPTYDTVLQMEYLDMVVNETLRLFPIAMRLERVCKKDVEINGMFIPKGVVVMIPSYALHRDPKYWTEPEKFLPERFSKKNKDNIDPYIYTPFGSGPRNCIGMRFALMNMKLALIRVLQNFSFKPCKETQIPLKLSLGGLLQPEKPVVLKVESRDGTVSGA

Compound: COc1ccc2nc([S+]([O-])Cc3ncc(CO)c(OC)c3C)[nH]c2c1 (stereo not shown) [5-hydroxy omeprazole]
- concentrations in saliva [1]: found in low concentrations in saliva of some individuals

Compound: COC(=O)[C@H]1[C@H]2[C@@H]3CC[C@@]4(CCC(=O)O4)[C@@]3(C)C[C@H]3O[C@@]23[C@@]2(C)CCC(=O)C=C2[C@@H]1O [6Beta-Hydroxy Eplerenone]
- concentrations in saliva [2]: sufficiently high concentrations in saliva

Compound: CN(C)CCc1c[nH]c2ccc(CS(=O)(=O)N3CCCC3)cc12 [Almortriptan (Axert), Almortriptan]
- ORAL BIOAVAILABILITY [3, 11]: 70%
- METABOLISM ([4]; CYP isoforms listed, Table of Exemplary Drugs, CYP3A4): 2D6, MAO
- PLASMA PROTEIN BINDING [5, 11]: 35%

Compound: Cn1c(=O)c2c(ncn2C)n(C)c1=O [Caffeine]
- complaints of individuals ([6]; caffeine doses of 200 mg, some individuals): nervousness and anxiety
- poor metabolizers, share of subjects (CYP1A2 phenotype) ([6]; saliva, healthy primarily Caucasian adults, caffeine 200 mg): 7.8%
- PLASMA PROTEIN BINDING [5, 12]: 17-36% ^

Compound: COc1ccc2c(c1)[C@]13CCCC[C@@H]1[C@H](C2)N(C)CC3 [Dextromethophan]
- antimode (MR) marking poor metabolizers ([7]; healthy Chinese subjects, 3 hours after 50 mg immediate release): 14
- antimode (MR) ([7]; patients with renal disease, 3 hours after 30 mg immediate release): 33
- ORAL BIOAVAILABILITY ([3]; in vivo, po): 11%
- antimode (MR) marking poor metabolizers ([8]; saliva, 6 hours after a 30 mg delayed release dose): 27.5
- CYP2D6 metabolic phenotype: Extensive [8, 13]: 83.9%
- CYP2D6 metabolic phenotype: Intermediate [8, 13]: 9.2%
- CYP2D6 metabolic phenotype: Poor [8, 13]: 4.6%
- CYP2D6 metabolic phenotype: Ultra-rapid [8, 13]: 2.3%
- HALF-LIFE ([9]; in vivo): 1.4 to 3.9 h

Compound: CN1CC[C@@]23CCCC[C@@H]2[C@@H]1Cc1ccc(O)cc13 [Dextrorphan]
- concentrations in saliva ([8]; individuals dosed with over the counter formulations): sometimes found in very low concentrations in saliva

Compound: COC(=O)[C@@H]1CC2=CC(=O)CC[C@]2(C)[C@@]23O[C@@H]2C[C@@]2(C)[C@@H](CC[C@@]24CCC(=O)O4)[C@H]13 [Eplerenone (Inspra), Eplerenone]
- ORAL BIOAVAILABILITY [3, 11]: 69%
- Tmax [10]: approximately 1.5 hours
- PLASMA PROTEIN BINDING [5, 11]: 50%
- HALF-LIFE [9, 11]: 3 to 6 h

Compound: COC(=O)C1=C(C)NC(C)=C(C(=O)OCCN(C)Cc2ccccc2)C1c1cccc([N+](=O)[O-])c1 (stereo not shown) [Nicardipine (Cardene), Nicardipine]
- ORAL BIOAVAILABILITY [3, 11]: 35%
- METABOLISM [4]: 3A4, 2C8, 2D6
- HALF-LIFE [9, 11]: 8.6 to 14.4 h

Compound: COCCCOc1ccnc(C[S+]([O-])c2nc3ccccc3[nH]2)c1C (stereo not shown) [Rabeprazole]
- ORAL BIOAVAILABILITY [3, 14]: 52%
- METABOLISM ([4]; CYP isoforms listed, Table of Exemplary Drugs, CYP2C19): 3A
- HALF-LIFE [9, 14]: 1 to 2 h

Compound: Nc1c2c(nc3ccccc13)CCCC2 [Tacrine]
- ORAL BIOAVAILABILITY ([3]; in vivo, po): 2.4-36%
- PLASMA PROTEIN BINDING ([5]; plasma): 55%
- HALF-LIFE ([9]; in vivo): 2 to 4 h

Compound: C=CC[C@@H]1/C=C(\C)C[C@H](C)C[C@H](OC)[C@H]2O[C@@](O)(C(=O)C(=O)N3CCCC[C@H]3C(=O)O[C@H](/C(C)=C/[C@@H]3CC[C@@H](O)[C@H](OC)C3)[C@H](C)[C@@H](O)CC1=O)[C@H](C)C[C@@H]2OC [Tacrolimus (Prograf), Tacrolimus]
- ORAL BIOAVAILABILITY [3, 11]: 17-31%
- PLASMA PROTEIN BINDING [5, 11]: 99%
- HALF-LIFE [9, 11]: 8.7 to 37.9 h

Compound: CCOc1ccccc1OCCN[C@H](C)Cc1ccc(OC)c(S(N)(=O)=O)c1 [Tamsulosin (Flomax), Tamsulosin]
- ORAL BIOAVAILABILITY [3, 11]: >90%
- PLASMA PROTEIN BINDING [5, 11]: 94-99% ^
- HALF-LIFE [9, 11]: 9 to 15 h

Compound: CC[C@@H](c1cccc(O)c1)[C@@H](C)CN(C)C [Tapentadol]
- ORAL BIOAVAILABILITY [3, 15]: 32%
- ORAL BIOAVAILABILITY [3, 14]: 32%
- ORAL BIOAVAILABILITY [3, 16]: 32%
- PLASMA PROTEIN BINDING [5, 15]: 20%
- PLASMA PROTEIN BINDING [5, 14]: 20%
- PLASMA PROTEIN BINDING [5, 16]: 20%
- HALF-LIFE [9, 15]: 4 to 5 h
- HALF-LIFE [9, 14]: 4 to 5 h
- HALF-LIFE [9, 16]: 4 to 5 h

Compound: CN(C/C=C/C#CC(C)(C)C)Cc1cccc2ccccc12 [Terbinafine]
- ORAL BIOAVAILABILITY [3, 15]: 40%
- PLASMA PROTEIN BINDING [5, 15]: >99%
- HALF-LIFE [9, 15]: 22 to 26 h

Compound: C[C@]12CC[C@H]3[C@@H](CCC4=CC(=O)CC[C@@]43C)[C@@H]1CC[C@@H]2O [Testosterone]
- ORAL BIOAVAILABILITY ([3]; in vivo, po): Varies
- PLASMA PROTEIN BINDING ([5]; plasma): 98%
- HALF-LIFE (hrs) ([9]; in vivo): varies

Compound: Cn1c(=O)c2[nH]cnc2n(C)c1=O [Theophylline]
- ORAL BIOAVAILABILITY [3, 12]: ~100%
- METABOLISM ([4]; CYP isoforms listed, Table of Exemplary Drugs, CYP1A2): 2E1
- HALF-LIFE [9, 12]: 1.5 to 9.8 h

Compound: Cc1ccsc1C(=CCCN1CCC[C@@H](C(=O)O)C1)c1sccc1C [Tiagabine (Gabitril), Tiagabine]
- ORAL BIOAVAILABILITY [3, 11]: 90%
- PLASMA PROTEIN BINDING [5, 11]: 96%
- HALF-LIFE [9, 11]: 7 to 9 h

Compound: CCS(=O)(=O)CCn1c([N+](=O)[O-])cnc1C [Tinidazole (Tindamax), Tinidazole]
- ORAL BIOAVAILABILITY [3, 11]: 100%
- PLASMA PROTEIN BINDING [5, 11]: 12%
- HALF-LIFE [9, 11]: 11.1 to 14.7 h

Compound: CCC[C@@]1(CCc2ccccc2)CC(O)=C([C@H](CC)c2cccc(NS(=O)(=O)c3ccc(C(F)(F)F)cn3)c2)C(=O)O1 [Tipranavir (Aptivus), Tipranavir]
- ORAL BIOAVAILABILITY [3, 11]: 30?%
- PLASMA PROTEIN BINDING [5, 11]: 99.9%^
- HALF-LIFE [9, 11]: 5.5 to 6 h

Compound: Cc1cccc(Nc2ccncc2S(=O)(=O)NC(=O)NC(C)C)c1 [Torasemide]
- ORAL BIOAVAILABILITY [3, 15]: 80%
- PLASMA PROTEIN BINDING [5, 15]: >99%
- HALF-LIFE [9, 15]: 2.2 to 3.8 h

Compound: COc1cccc(C2(O)CCCCC2CN(C)C)c1 (stereo not shown) [Tramadol]
- ORAL BIOAVAILABILITY [3, 16]: 75%
- PLASMA PROTEIN BINDING [5, 16]: 20%
- HALF-LIFE ([9]; in vivo): 5.6 to 5.7 h

Compound: CN1[C@@H]2CC[C@H]1C[C@@H](OC(=O)c1c[nH]c3ccccc13)C2 [Tropisetron]
- ORAL BIOAVAILABILITY [3, 16]: 60-100%
- PLASMA PROTEIN BINDING [5, 16]: 71%
- HALF-LIFE [9, 16]: 5.6 to 8.6 h

Compound: CCCc1nc(C)c2c(=O)[nH]c(-c3cc(S(=O)(=O)N4CCN(CC)CC4)ccc3OCC)nn12 [Vardenafil (Levitra), Vardenafil]
- ORAL BIOAVAILABILITY [3, 11]: 15-44%
- PLASMA PROTEIN BINDING [5, 11]: 95%
- HALF-LIFE [9, 11]: 4 to 5 h

Compound: CN1CCN(C(=O)OC2c3nccnc3C(=O)N2c2ccc(Cl)cn2)CC1 (stereo not shown) [Zopiclone (Imovane), Zopiclone]
- ORAL BIOAVAILABILITY [3, 11]: 80%
- PLASMA PROTEIN BINDING [5, 11]: 45%
- HALF-LIFE [9, 11]: 3.5 to 6.5 h

Compound: OCCN1CCN(CC/C=C2/c3ccccc3Sc3ccc(Cl)cc32)CC1 [Zuclopenthixol]
- ORAL BIOAVAILABILITY [3, 16]: 49%
- PLASMA PROTEIN BINDING [5, 16]: 98%
- HALF-LIFE [9, 16]: 20 h

Compound: Polyunsaturated FAs
- ORAL BIOAVAILABILITY [3, 15]: 64-73%
- PLASMA PROTEIN BINDING [5, 15]: >99%
- HALF-LIFE [9, 15]: 2.7 to 5.5 h

Reference: patent US10927398B2, “Compositions for CYP450 phenotyping using saliva samples” (Concordia University, Inc., priority 2015, dated 2021)
